From US8575158B2, “1-phenyl-substituted heterocyclyl derivatives and their use as prostaglandin D2 receptor modulators” (Actelion Pharmaceuticals Ltd., priority 2010, dated 2013)

Target: T1, hCRTH2 receptor (Homo sapiens, UniProt Q9Y5Y4)
T1 construct: expressed in transfected cells; host or cells: HEK293
T1 sequence (Q9Y5Y4 1-395): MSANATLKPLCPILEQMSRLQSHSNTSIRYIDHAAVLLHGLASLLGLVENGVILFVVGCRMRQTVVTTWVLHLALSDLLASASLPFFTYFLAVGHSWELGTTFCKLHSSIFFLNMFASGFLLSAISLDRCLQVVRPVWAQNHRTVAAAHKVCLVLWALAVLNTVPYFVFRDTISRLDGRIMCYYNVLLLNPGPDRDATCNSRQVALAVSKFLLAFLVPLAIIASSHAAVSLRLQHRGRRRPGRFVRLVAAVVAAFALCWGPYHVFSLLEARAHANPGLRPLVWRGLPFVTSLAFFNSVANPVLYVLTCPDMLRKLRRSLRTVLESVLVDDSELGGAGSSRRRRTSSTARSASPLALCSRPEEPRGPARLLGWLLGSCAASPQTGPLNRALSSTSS
Assay: Radioligand displacement assay (3H-PGD2) on hCRTH2 receptor membranes
Assay type: binding
Details: antagonistic activity; 3H-PGD2 displacement on HEK293-hCRTH2 membrane fragments

IC50 [nM] | SMILES
147 | O=C(O)COc1ccc(-c2noc(=S)[nH]2)cc1C1c2ccccc2CCN1C(=O)OCc1ccccc1 (racemic) [Example 214, (±)-1-[2-Carboxymethoxy-5-(5-thioxo-4,5-dihydro-[1,2,4]oxadiazol-3-yl)-phenyl]-3,4-dihydro-1H-isoquinoline-2-carboxylic acid benzyl ester]
27 | O=C(O)COc1cc(F)ccc1C1c2ccccc2CCN1C(=O)OCc1ccccc1 (racemic) [Example 215, (±)-1-(2-Carboxymethoxy-4-fluoro-phenyl)-3,4-dihydro-1H-isoquinoline-2-carboxylic acid benzyl ester]
182 | O=C(O)COc1cccc(F)c1C1c2ccccc2CCN1C(=O)OCc1ccccc1 (racemic) [Example 216, (±)-1-(2-Carboxymethoxy-6-fluoro-phenyl)-3,4-dihydro-1H-isoquinoline-2-carboxylic acid benzyl ester]
110 | O=C(O)CCCOc1ccc(F)cc1C1c2ccccc2CCN1C(=O)OCc1ccccc1 (racemic) [Example 217, (±)-1-[2-(3-Carboxy-propoxy)-5-fluoro-phenyl]-3,4-dihydro-1H-isoquinoline-2-carboxylic acid benzyl ester]
13.4 | N#Cc1ccc(OCC(=O)O)c(C2c3ccccc3CCN2C(=O)[C@@H]2C[C@H]2c2ccccc2)c1 (mixture of isomers) [Example 218, (±)-{4-Cyano-2-[2-(trans-2-phenyl-cyclopropanecarbonyl)-1,2,3,4-tetrahydro-isoquinolin-1-yl]-phenoxy}-acetic acid]
4.72 | N#Cc1ccc(OCC(=O)O)c(C2c3ccccc3CCN2C(=O)OCc2ccccc2)c1 (racemic) [Example 219, (±)-1-(2-Carboxymethoxy-5-cyano-phenyl)-3,4-dihydro-1H-isoquinoline-2-carboxylic acid benzyl ester]
141 | CS(=O)(=O)Nc1cccc2c1CCN(C(=O)OCc1ccccc1)C2c1cc(F)ccc1OCC(=O)O (racemic) [Example 222, (±)-1-(2-Carboxymethoxy-5-fluoro-phenyl)-5-methanesulfonylamino-3,4-dihydro-1H-isoquinoline-2-carboxylic acid benzyl ester]
7.01 | O=C(O)COc1ccc(-n2ccnn2)cc1C1c2ccccc2CCN1C(=O)OCc1ccccc1 (racemic) [Example 223, (±)-1-(2-Carboxymethoxy-5-[1,2, 3]triazol-1-yl-phenyl)-3,4-dihydro-1H-isoquinoline-2-carboxylic acid benzyl ester]
12.7 | O=C(O)COc1ccc(-n2nccn2)cc1C1c2ccccc2CCN1C(=O)OCc1ccccc1 (racemic) [Example 224, (±)-1-(2-Carboxymethoxy-5-[1,2, 3]triazol-2-yl-phenyl)-3,4-dihydro-1H-isoquinoline-2-carboxylic acid benzyl ester]
76.5 | COc1ccccc1CNC(=S)N1CCc2ccccc2C1c1cc(Cl)ccc1OCC(=O)O (racemic) [Example 225, (±)-{4-Chloro-2-[2-(2-methoxy-benzylthiocarbamoyl)-1,2,3,4-tetrahydro-isoquinolin-1-yl]-phenoxy}-acetic acid]
5.23 | O=C(O)COc1ccc(Cl)cc1C1c2ccc(F)cc2CCN1C(=O)OCc1ccccc1 (racemic) [Example 226, (±)-1-(2-Carboxymethoxy-5-chloro-phenyl)-6-fluoro-3,4-dihydro-1H-isoquinoline-2-carboxylic acid benzyl ester]
7.21 | O=C(O)COc1ccc(Cl)cc1C1c2ccccc2CCN1C(=O)OCc1ccccc1Br (racemic) [Example 227]
12.8 | O=C(O)COc1ccc(Cl)cc1C1c2ccccc2CN1C(=O)OCc1ccccc1 (racemic) [Example 230]
4.55 | COc1ccccc1COC(=O)N1CCc2ccccc2C1c1cc(Cl)ccc1OCC(=O)O (racemic) [Example 233]
3.61 | O=C(O)COc1ccc(Cl)cc1C1c2ccccc2CCN1C(=O)OCc1ccccc1F (racemic) [Example 234]
5.62 | Cc1ccccc1COC(=O)N1CCc2ccccc2C1c1cc(Cl)ccc1OCC(=O)O (racemic) [Example 235]
5.59 | O=C(O)COc1ccc(Cl)cc1C1c2ccccc2CCN1C(=O)OCc1ccccc1C(F)(F)F (racemic) [Example 236]
4.02 | COc1cccc(COC(=O)N2CCc3ccccc3C2c2cc(Cl)ccc2OCC(=O)O)c1 (racemic) [Example 237]
12.6 | O=C(O)COc1ccc(Cl)cc1C1c2ccccc2CCN1C(=O)OCc1cccc(F)c1 (racemic) [Example 238]

Further lines, the compound ahead of its results:

SMILES | IC50 [nM]
CCS(=O)(=O)c1cccc2c1CCN(C(=O)OCc1ccccc1)C2c1cc(F)ccc1OCC(=O)O (racemic) [Example 186] | 311
O=C(O)COc1ccc(F)cc1C1c2cccc(S(=O)(=O)c3ccccc3)c2CCN1C(=O)OCc1ccccc1 (racemic) [Example 187] | 241
O=C(O)COc1ccc(-c2cncnc2)cc1C1c2ccccc2CCN1C(=O)OCc1ccccc1 (racemic) [Example 188, (±)-1-(2-Carboxymethoxy-5-pyrimidin-5-yl-phenyl)-3,4-dihydro-1H-isoquinoline-2-carboxylic acid benzyl ester] | 89.4
O=C(O)COc1ccc(-c2ccc(F)cc2)cc1C1c2ccccc2CCN1C(=O)OCc1ccccc1 (racemic) [Example 189, (±)-1-(4-Carboxymethoxy-4′-fluoro-biphenyl-3-yl)-3,4-dihydro-1H-isoquinoline-2-carboxylic acid benzyl ester] | 23.3
O=C(O)COc1ccc(F)cc1C1c2ccccc2CCN1C(=O)COCc1cccc(Cl)c1 (racemic) [Example 190] | 16.9
O=C(O)COc1ccc(F)cc1C1c2ccccc2CCN1C(=O)COCc1ccc(Cl)cc1 (racemic) [Example 191] | 33.3
Cc1ccccc1COCC(=O)N1CCc2ccccc2C1c1cc(F)ccc1OCC(=O)O (racemic) [Example 192] | 11.1
Cc1cccc(COCC(=O)N2CCc3ccccc3C2c2cc(F)ccc2OCC(=O)O)c1 (racemic) [Example 193] | 27.7
Cc1ccc(COCC(=O)N2CCc3ccccc3C2c2cc(F)ccc2OCC(=O)O)cc1 (racemic) [Example 194] | 90.2
COc1cccc(COCC(=O)N2CCc3ccccc3C2c2cc(F)ccc2OCC(=O)O)c1 (racemic) [Example 195] | 36.3
COc1ccc(COCC(=O)N2CCc3ccccc3C2c2cc(F)ccc2OCC(=O)O)cc1 (racemic) [Example 196] | 146
Cn1ccc(COCC(=O)N2CCc3ccccc3C2c2cc(F)ccc2OCC(=O)O)n1 (racemic) [Example 197, (±)-(4-Fluoro-2-{2-[2-(1-methyl-1H-pyrazol-3-ylmethoxy)-acetyl]-1,2,3,4-tetrahydro-isoquinolin-1-yl}-phenoxy)-acetic acid] | 323
COc1ccccc1COCC(=O)N1CCc2ccccc2C1c1cc(F)ccc1OCC(=O)O (racemic) [Example 198, (±)-(4-Fluoro-2-{2-[2-(2-methoxy-benzyloxy)-acetyl]-1,2,3,4-tetrahydro-isoquinolin-1-yl}-phenoxy)-acetic acid] | 19
O=C(O)COc1ccc(F)cc1C1c2ccccc2CCN1C(=O)NCc1ccccc1 (racemic) [Example 199] | 54
O=C(O)COc1ccc(F)cc1C1c2ccccc2CCN1C(=O)NCCc1ccccc1 (racemic) [Example 200] | 31
COc1ccccc1CNC(=O)N1CCc2ccccc2C1c1cc(F)ccc1OCC(=O)O (racemic) [Example 201] | 21
COc1ccccc1CNC(=O)N1CCc2ccccc2C1c1cc(Cl)ccc1OCC(=O)O (racemic) [Example 202] | 7.29
O=C(O)COc1ccc(F)cc1C1c2ccccc2CCN1C(=O)NCc1ccccc1Cl (racemic) [Example 203] | 27.9
O=C(O)COc1ccc(F)cc1C1c2ccccc2CCN1C(=O)NCCc1ccccc1Cl (racemic) [Example 204, (±)-(2-{2-[2-(2-Chloro-phenyl)-ethylcarbamoyl]-1,2,3,4-tetrahydro-isoquinolin-1-yl}-4-fluoro-phenoxy)-acetic acid] | 83
O=C(O)COc1ccc(F)cc1C1c2ccccc2CCN1C(=O)CNS(=O)(=O)c1ccccc1 (racemic) [Example 205] | 928
Cc1noc(C)c1S(=O)(=O)NCC(=O)N1CCc2ccccc2C1c1cc(F)ccc1OCC(=O)O (racemic) [Example 206] | 819
O=C(O)COc1ccc(F)cc1C1c2ccccc2CCN1C(=O)CNS(=O)(=O)c1cccc(F)c1 (racemic) [Example 207] | 347
O=C(O)COc1ccc(F)cc1C1c2ccccc2CCN1C(=O)CNS(=O)(=O)c1ccccc1F (racemic) [Example 208] | 983
O=C(O)COc1ccc(F)cc1C1c2ccccc2CCN1C(=O)CNS(=O)(=O)c1ccc(F)c(F)c1 (racemic) [Example 209] | 644
CN(CC(=O)N1CCc2ccccc2C1c1cc(F)ccc1OCC(=O)O)S(=O)(=O)c1ccccc1 (racemic) [Example 210] | 423
CN(CC(=O)N1CCc2ccccc2C1c1cc(F)ccc1OCC(=O)O)S(=O)(=O)c1cccc(F)c1 (racemic) [Example 211] | 261
CN(CC(=O)N1CCc2ccccc2C1c1cc(F)ccc1OCC(=O)O)S(=O)(=O)c1ccc(F)c(F)c1 (racemic) [Example 212] | 920
NC(=O)c1ccc(OCC(=O)O)c(C2c3ccccc3CCN2C(=O)OCc2ccccc2)c1 (racemic) [Example 213, (±)-1-(5-Carbamoyl-2-carboxymethoxy-phenyl)-3,4-dihydro-1H-isoquinoline-2-carboxylic acid benzyl ester] | 344
